Experimental data reported in ChEMBL document CHEMBL4507270 (2021).

What was measured:
Ephrin type-B receptor 6 = biological target: T1, Ephrin type-B receptor 6 (Homo sapiens, UniProt O15197); test: NanoBRET assay (SGC Frankfurt) with EPHB6
T1 sequence (O15197 whole entry): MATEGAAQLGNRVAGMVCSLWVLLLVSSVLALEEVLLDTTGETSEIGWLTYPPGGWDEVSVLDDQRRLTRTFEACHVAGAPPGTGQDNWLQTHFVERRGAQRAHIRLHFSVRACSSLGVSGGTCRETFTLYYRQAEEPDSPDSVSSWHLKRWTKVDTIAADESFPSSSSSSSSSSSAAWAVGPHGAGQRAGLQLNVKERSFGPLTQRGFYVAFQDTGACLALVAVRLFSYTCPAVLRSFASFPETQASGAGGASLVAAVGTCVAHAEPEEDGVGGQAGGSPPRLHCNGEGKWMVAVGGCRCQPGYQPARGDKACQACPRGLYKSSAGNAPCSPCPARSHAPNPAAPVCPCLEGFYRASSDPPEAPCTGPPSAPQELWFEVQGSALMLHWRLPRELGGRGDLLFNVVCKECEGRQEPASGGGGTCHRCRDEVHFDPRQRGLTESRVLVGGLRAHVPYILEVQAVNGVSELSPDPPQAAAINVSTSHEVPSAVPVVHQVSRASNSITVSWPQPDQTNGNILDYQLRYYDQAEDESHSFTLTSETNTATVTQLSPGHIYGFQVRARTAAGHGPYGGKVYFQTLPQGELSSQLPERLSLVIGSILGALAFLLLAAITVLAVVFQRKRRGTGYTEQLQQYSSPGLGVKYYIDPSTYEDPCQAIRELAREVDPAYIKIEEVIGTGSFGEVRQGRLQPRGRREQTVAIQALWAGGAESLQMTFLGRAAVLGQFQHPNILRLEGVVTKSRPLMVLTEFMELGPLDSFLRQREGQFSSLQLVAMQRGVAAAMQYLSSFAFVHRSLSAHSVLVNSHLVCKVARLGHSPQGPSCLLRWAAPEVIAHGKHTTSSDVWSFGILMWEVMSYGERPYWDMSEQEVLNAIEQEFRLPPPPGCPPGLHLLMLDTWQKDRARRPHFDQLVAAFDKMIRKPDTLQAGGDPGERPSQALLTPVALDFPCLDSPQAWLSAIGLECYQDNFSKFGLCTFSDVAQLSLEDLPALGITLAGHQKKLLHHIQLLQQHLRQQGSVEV

[1] = biological target: Tyrosine-protein kinase ABL1 (Homo sapiens) (UniProt P00519)
[2] = biological target: Atypical kinase COQ8B, mitochondrial (Homo sapiens) (UniProt Q96D53)
Chain of Atypical kinase COQ8B, mitochondrial (Homo sapiens) (Q96D53 whole entry): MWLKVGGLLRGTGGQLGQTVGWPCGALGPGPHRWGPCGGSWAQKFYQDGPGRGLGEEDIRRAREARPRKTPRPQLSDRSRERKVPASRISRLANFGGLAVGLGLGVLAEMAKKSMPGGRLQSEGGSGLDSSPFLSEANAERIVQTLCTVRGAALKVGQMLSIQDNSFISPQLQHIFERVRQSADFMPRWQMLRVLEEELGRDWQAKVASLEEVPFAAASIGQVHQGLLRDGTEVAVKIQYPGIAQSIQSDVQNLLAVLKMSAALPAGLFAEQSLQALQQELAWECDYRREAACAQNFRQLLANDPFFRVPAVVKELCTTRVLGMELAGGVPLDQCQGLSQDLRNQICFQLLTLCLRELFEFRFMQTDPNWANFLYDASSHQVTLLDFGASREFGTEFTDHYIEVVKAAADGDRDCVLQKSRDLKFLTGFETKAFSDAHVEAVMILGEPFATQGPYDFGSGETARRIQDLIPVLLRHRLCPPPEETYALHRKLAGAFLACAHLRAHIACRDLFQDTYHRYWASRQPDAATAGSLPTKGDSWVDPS

[3] = system: ALK tyrosine kinase receptor (Homo sapiens), Q9UM73 [L1196M]
[4] = biological target: Ankyrin repeat and protein kinase domain-containing protein 1 (Homo sapiens) (UniProt Q8NFD2)
[5] = biological target: Mitogen-activated protein kinase kinase kinase 5 (Homo sapiens) (UniProt Q99683)
[6] = biological target: Mitogen-activated protein kinase kinase kinase 6 (Homo sapiens) (UniProt O95382)
Chain of Mitogen-activated protein kinase kinase kinase 6 (Homo sapiens) (O95382 whole entry): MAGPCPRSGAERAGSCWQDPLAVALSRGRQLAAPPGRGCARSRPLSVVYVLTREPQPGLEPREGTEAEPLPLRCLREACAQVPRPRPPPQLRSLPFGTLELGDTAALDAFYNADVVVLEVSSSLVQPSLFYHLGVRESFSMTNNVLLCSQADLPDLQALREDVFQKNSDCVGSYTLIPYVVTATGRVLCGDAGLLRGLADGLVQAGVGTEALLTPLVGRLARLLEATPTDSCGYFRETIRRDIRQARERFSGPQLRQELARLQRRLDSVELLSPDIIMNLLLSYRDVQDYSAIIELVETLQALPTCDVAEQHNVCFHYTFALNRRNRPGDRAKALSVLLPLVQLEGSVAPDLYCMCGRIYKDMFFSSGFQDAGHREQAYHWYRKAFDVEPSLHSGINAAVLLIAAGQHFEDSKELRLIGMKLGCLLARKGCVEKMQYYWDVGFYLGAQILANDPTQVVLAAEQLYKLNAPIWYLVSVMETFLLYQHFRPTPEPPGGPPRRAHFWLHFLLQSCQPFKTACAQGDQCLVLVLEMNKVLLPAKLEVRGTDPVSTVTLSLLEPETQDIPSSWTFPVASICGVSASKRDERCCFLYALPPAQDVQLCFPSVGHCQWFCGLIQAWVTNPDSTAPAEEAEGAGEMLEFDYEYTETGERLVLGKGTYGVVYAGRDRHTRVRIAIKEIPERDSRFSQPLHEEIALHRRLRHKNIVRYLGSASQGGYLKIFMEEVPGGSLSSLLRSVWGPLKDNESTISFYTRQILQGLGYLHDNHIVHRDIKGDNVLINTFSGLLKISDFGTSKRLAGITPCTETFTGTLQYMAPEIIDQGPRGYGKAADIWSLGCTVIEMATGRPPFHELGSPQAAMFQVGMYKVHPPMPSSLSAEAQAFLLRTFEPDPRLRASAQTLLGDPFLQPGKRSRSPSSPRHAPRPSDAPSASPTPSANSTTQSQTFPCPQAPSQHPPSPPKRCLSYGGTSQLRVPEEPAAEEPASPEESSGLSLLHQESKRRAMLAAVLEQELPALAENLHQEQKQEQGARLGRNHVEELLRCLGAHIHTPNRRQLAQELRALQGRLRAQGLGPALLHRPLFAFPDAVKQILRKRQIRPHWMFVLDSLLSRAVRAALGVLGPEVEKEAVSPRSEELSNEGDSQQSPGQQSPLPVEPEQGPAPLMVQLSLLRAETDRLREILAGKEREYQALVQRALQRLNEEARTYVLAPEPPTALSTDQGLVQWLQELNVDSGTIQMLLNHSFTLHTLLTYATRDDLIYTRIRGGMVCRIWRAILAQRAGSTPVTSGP

[7] = biological target: Tyrosine-protein kinase BTK (Homo sapiens) (UniProt Q06187)
Chain of Tyrosine-protein kinase BTK (Homo sapiens) (Q06187 whole entry): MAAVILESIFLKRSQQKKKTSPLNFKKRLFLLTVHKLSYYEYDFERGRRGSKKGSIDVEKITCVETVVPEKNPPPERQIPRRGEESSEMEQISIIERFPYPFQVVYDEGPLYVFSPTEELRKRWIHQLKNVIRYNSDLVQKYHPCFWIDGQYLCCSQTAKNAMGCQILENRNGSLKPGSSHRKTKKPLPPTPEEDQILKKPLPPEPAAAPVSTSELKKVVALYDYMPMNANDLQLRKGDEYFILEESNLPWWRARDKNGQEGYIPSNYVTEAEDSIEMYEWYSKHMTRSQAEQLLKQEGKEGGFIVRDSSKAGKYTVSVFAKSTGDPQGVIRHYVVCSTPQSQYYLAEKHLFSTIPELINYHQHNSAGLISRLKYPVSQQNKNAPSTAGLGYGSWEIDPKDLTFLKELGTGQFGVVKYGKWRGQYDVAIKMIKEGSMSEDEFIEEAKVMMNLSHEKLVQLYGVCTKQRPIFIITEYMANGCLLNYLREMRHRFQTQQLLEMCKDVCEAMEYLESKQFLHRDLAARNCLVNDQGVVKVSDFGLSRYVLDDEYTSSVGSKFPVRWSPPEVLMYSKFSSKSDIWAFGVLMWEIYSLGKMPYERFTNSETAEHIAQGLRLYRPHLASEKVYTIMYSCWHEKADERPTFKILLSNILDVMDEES

[8] = biological target: Calcium/calmodulin-dependent protein kinase type II subunit gamma (Homo sapiens) (UniProt Q13555)
[9] = biological target: Calcium/calmodulin-dependent protein kinase kinase 1 (Homo sapiens) (UniProt Q8N5S9)
[10] = biological target: Cyclin-dependent kinase 7 (Homo sapiens) (UniProt P50613)
Chain of Cyclin-dependent kinase 7 (Homo sapiens) (P50613 whole entry, canonical isoform): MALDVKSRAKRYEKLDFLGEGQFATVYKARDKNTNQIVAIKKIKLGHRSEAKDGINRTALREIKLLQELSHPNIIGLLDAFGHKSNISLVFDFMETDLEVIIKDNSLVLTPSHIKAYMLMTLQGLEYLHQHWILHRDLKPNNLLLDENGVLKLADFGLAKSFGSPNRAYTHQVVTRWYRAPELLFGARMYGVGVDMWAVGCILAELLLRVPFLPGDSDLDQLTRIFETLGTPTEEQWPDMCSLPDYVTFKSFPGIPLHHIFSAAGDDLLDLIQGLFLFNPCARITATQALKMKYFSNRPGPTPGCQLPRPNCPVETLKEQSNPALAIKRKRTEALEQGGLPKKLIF

[11] = biological target: Casein kinase I isoform gamma-1 (Homo sapiens) (UniProt Q9HCP0)
[12] = biological target: Casein kinase II subunit alpha (Homo sapiens) (UniProt P68400)
[13] = biological target: Casein kinase II subunit alpha' (Homo sapiens) (UniProt P19784)
Chain of Casein kinase II subunit alpha' (Homo sapiens) (P19784 whole entry, looked up): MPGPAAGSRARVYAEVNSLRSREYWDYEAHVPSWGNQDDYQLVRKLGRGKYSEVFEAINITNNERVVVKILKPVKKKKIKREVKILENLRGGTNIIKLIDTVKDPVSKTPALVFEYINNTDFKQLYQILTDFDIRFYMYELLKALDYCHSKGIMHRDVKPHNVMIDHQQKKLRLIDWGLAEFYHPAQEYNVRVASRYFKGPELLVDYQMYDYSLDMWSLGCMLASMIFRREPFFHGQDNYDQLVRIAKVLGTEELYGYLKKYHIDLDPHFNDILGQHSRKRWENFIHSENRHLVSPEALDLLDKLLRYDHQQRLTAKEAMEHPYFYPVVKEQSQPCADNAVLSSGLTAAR

[14] = biological target: Serine/threonine-protein kinase DCLK1 (Homo sapiens) (UniProt O15075)
[15] = biological target: Serine/threonine-protein kinase DCLK3 (Homo sapiens) (UniProt Q9C098)
Chain of Serine/threonine-protein kinase DCLK3 (Homo sapiens) (Q9C098 whole entry, the tested form may be a part): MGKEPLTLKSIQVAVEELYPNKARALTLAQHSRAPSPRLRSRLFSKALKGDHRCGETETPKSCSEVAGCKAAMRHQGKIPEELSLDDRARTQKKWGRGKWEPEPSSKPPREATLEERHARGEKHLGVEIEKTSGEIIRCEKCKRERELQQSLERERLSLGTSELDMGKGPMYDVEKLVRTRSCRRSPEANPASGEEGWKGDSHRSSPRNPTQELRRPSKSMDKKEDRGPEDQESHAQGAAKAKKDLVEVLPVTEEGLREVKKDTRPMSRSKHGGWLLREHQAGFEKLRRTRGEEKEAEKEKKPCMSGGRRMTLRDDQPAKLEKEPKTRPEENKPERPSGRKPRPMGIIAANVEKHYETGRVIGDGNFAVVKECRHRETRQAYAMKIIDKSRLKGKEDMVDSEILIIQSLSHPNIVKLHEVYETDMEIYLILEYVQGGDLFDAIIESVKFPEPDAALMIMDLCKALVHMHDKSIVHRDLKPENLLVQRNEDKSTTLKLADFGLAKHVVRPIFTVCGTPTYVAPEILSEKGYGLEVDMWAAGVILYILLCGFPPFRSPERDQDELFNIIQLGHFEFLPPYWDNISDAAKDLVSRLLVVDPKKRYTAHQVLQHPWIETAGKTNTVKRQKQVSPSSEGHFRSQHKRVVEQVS

[16] = biological target: Discoidin domain-containing receptor 2 (Homo sapiens) (UniProt Q16832)
[17] = biological target: Ephrin type-A receptor 4 (Homo sapiens) (UniProt P54764)
[18] = system: Mast/stem cell growth factor receptor Kit (Homo sapiens), P10721 [L576P]
[19] = biological target: Mitogen-activated protein kinase kinase kinase kinase 4 (Homo sapiens) (UniProt O95819)
[20] = biological target: Mitogen-activated protein kinase kinase kinase kinase 5 (Homo sapiens) (UniProt Q9Y4K4)
[21] = biological target: Myosin light chain kinase (Homo sapiens) (UniProt Q32MK0)
[22] = biological target: Macrophage-stimulating protein receptor (Homo sapiens) (UniProt Q04912)
[23] = biological target: Serine/threonine-protein kinase Nek5 (Homo sapiens) (UniProt Q6P3R8)
[24] = biological target: Phosphorylase b kinase regulatory subunit alpha, liver isoform (Homo sapiens) (UniProt P46019)
Chain of Phosphorylase b kinase regulatory subunit alpha, liver isoform (Homo sapiens) (P46019 whole entry, canonical isoform): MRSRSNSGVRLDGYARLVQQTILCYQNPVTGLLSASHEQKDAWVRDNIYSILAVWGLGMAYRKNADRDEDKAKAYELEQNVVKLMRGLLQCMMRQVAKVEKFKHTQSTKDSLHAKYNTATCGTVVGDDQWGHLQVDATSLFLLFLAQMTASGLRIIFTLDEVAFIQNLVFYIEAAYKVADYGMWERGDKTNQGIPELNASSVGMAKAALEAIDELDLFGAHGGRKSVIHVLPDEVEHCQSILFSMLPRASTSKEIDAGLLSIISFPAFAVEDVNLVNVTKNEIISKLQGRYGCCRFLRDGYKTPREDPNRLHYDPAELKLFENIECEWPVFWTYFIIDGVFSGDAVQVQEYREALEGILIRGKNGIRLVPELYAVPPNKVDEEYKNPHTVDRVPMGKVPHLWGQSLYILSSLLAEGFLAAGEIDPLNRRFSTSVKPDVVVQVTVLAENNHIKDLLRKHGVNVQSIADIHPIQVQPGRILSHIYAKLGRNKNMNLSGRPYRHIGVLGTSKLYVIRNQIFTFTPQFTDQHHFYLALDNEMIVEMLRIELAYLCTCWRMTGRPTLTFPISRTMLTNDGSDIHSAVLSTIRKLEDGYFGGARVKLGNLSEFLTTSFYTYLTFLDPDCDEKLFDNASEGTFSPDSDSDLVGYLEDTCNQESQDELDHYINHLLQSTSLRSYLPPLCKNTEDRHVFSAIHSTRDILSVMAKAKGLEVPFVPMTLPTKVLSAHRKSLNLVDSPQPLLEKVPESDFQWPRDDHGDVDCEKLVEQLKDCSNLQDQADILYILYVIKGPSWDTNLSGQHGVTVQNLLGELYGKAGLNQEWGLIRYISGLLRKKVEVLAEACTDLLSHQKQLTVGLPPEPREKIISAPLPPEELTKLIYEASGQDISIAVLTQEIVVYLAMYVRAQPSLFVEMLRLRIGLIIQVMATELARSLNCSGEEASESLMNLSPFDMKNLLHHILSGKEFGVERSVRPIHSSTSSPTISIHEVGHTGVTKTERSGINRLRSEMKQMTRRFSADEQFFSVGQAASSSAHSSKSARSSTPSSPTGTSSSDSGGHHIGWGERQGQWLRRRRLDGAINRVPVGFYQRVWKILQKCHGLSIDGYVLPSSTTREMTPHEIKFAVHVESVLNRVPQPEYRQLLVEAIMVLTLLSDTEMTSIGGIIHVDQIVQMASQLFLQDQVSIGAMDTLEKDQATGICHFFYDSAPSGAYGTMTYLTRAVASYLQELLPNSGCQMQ

[25] = biological target: Serine/threonine-protein kinase pim-1 (Homo sapiens) (UniProt P11309)
[26] = biological target: Phosphatidylinositol 4-phosphate 5-kinase type-1 gamma (Homo sapiens) (UniProt O60331)
[27] = biological target: cAMP-dependent protein kinase catalytic subunit alpha (Homo sapiens) (UniProt P17612)
[28] = biological target: Serine/threonine-protein kinase WNK1 (Homo sapiens) (UniProt Q9H4A3)
[29] = biological target: Serine/threonine-protein kinase WNK3 (Homo sapiens) (UniProt Q9BYP7)
[30] = biological target: Beta-3 adrenergic receptor (Homo sapiens, UniProt P13945); conditions: Compound concentration 10.0 uM
[31] = Compound concentration 1000.0 nM
[32] = Compound concentration 100.0 nM

For `Cc1cc(NC(=O)c2cccc(S(F)(F)(F)(F)F)c2)cc(-n2ccn3nc(-c4cccnc4)cc23)c1` [BAY-309], the EC50 (Ephrin type-B receptor 6) was 27 µM (not active), the IC50 (Ephrin type-B receptor 6) was 11 µM (not active) and the residual activity [1, 31] was 52.2%. The residual activity [2, 31] was 100%, the residual activity [3, 31] was 100% and the residual activity [4, 31] was 100%. For the same molecule, the residual activity [5, 31] was 100%, the residual activity [6, 31] was 62.7% and the residual activity [7, 31] was 83.8%. For the same molecule, the residual activity [8, 31] was 100%, the residual activity [9, 31] was 100% and the residual activity [10, 31] was 100%. For the same molecule, the residual activity [11, 31] was 100%, the residual activity [12, 31] was 66.7% and the residual activity [13, 31] was 100%. The residual activity [14, 31] was 66.2%, the residual activity [15, 31] was 100% and the residual activity [16, 31] was 18.2%. It also gave a residual activity [17, 31] of 76%, a residual activity [18, 31] of 100% and a residual activity [19, 31] of 100%. The residual activity [20, 31] was 100%, the residual activity [21, 31] was 100% and the residual activity [22, 31] was 71%. It also gave a residual activity [23, 31] of 86.8%, a residual activity [24, 31] of 100% and a residual activity [25, 31] of 95.6%. The residual activity [26, 31] was 100%, the residual activity [27, 31] was 100% and the residual activity [28, 31] was 100%. For the same molecule, the residual activity [29, 31] was 100% and the inhibition [30] was 32.3%.
With `Cc1cc(C)c(-n2ccn3nc(-c4cccnc4)cc23)cc1NC(=O)c1cc(C#N)cc(S(F)(F)(F)(F)F)c1` [BAY-826] the EC50 (Ephrin type-B receptor 6) was 12 µM (not active), the IC50 (Ephrin type-B receptor 6) was 3.9 µM (not active) and the residual activity [1, 32] was 29.2%. The residual activity [2, 32] was 93.2%, the residual activity [3, 32] was 99.6% and the residual activity [4, 32] was 84.5%. The residual activity [5, 32] was 100%, the residual activity [6, 32] was 100% and the residual activity [7, 32] was 100%. It also gave a residual activity [8, 32] of 93.4%, a residual activity [9, 32] of 93.6% and a residual activity [10, 32] of 70.1%. It also gave a residual activity [11, 32] of 91.1%, a residual activity [12, 32] of 74.2% and a residual activity [13, 32] of 82.4%. The residual activity [14, 32] was 73.6%, the residual activity [15, 32] was 83.5% and the residual activity [16, 32] was 1.8%. The residual activity [17, 32] was 100%, the residual activity [18, 32] was 40.7% and the residual activity [19, 32] was 95.1%. For the same molecule, the residual activity [20, 32] was 83.4%, the residual activity [21, 32] was 100% and the residual activity [22, 32] was 75.6%. For the same molecule, the residual activity [23, 32] was 87.8%, the residual activity [24, 32] was 78.3% and the residual activity [25, 32] was 92%. It also gave a residual activity [26, 32] of 70.2%, a residual activity [27, 32] of 95.6% and a residual activity [28, 32] of 97.3%. The residual activity [29, 32] was 61.9% and the inhibition [30] was 52.3%.
